In publication PMC12811659:

Key:
[1] = not given; remark: listed apart in the source
[2] = not given; remark: listed apart in the source

Row | SMILES | cis-isomer fraction after 365 nm irradiation [%] | trans-isomer fraction, native state [1] [%] | trans-isomer fraction after 520 nm irradiation [2] [%]
1 | CC[C@H](C)[C@H](NC(=O)Cn1nc(C)c(/N=N\c2ccccc2)c1C)C(=O)N[C@@H](CO)C(=O)N[C@@H](C)C(=O)O | > 98 |  | 
2 | CC[C@H](C)[C@H](NC(=O)Cn1nc(C)c(/N=N/c2ccccc2)c1C)C(=O)N[C@@H](CO)C(=O)N[C@@H](C)C(=O)O |  | 85 | 87
